Experimental data taken from paper PMC11504230, “Comparative Properties of Helical and Linear Amphipathicity of Peptides Composed of Arginine, Tryptophan, and Valine” (Antibiotics, 2024).
Ends that are not written are not given here.

Tests used:
A. baumannii = assay type: cell-based; conditions: 18 h
Procedure: (§1) To examine antibacterial activity, we used minor modifications of a standard growth inhibition assay endorsed by the Clinical and Laboratory Standards Institute (CLSI), as previously described. Bacterial inocula for testing were prepared from exponential growth phase by diluting overnight cultures at 1:100 with fresh Tryptic soy broth (TSB) (Millipore Sigma, USA, Cat. No. 22092-500G) and incubating for an additional 3–4 h. Bacteria were spun at 3000× g for 10 min and the pellet was resuspended in phosphate-buffered saline (PBS) (Millipore Sigma, St Louis, MO, USA, Cat. No. P4417) to determine bacterial turbidity using a Den-1B densitometer (Grant Instruments, Beaver Falls, PA, USA) at 0.5 McFarland (unit of bacterial density) corresponding to […]. The prepared bacteria were incubated with each of the indicated peptides at a maximum test concentration of 16 µM and serially diluted in MHB2 and RPMI 1640 (Corning, NY, USA, Cat. No. 15-040-CM) at a 1:1 ratio. The plates were kept in an 8-drawer incubator for 18 h at 37 °C. A robotic system takes a plate from the drawer every hour and feeds a plate reader, which records the kinetics of bacterial growth at 570 nm to examine growth inhibition in real time (BioTek Instruments, Winooski, VT, USA). The minimum inhibitory concentration or MIC is the minimum peptide concentration that prevented bacterial growth, and it is objectively indicated by a flat (horizontal) line in the bacterial growth kinetic graph. Most assays are completed in duplicate. To assay for anti-biofilm activities, the 96-well plate from the growth inhibition assay is incubated for an additional 6 h (24 h total). The biomass was detected with crystal violet using a plate reader at A570, as previously described.
(§2) Figure 2 Comparative antibacterial activities of the H-RWV and L-RWV series. The 2 series were compared against MDR strains of 6 organisms as indicated. The test medium was composed of physiologically relevant RFM (60% RPMI plus 10% fetal bovine serum or FBS and 30% cation-adjusted MHB); endogenous AMP control was Indolicidin (Indo); small-molecule antibiotic controls were cefazolin, ceftazidime (Ceft), and meropenem (Mero). MIC, minimum inhibitory concentration with means represented by the black and red horizontal bars, which are used to determine the MOLs (minimum optimal lengths) indicated by the red and black arrows. (A–F) is based on the test organism as indicated. Data are representative of 2 independent trials. Corresponding Table 2 provides the mean MICs for the strains of each organism. The numbers stand for each peptide: 8, L/H-RWV8; 10, L/H-RWV10, etc.; red bar, mean MIC of L-RWV peptides and black bars, mean MIC of H-RWV peptides.

E. coli = assay type: cell-based; conditions: 18 h
Procedure: as §1, §2

E. faecium = assay type: cell-based; conditions: 18 h
Procedure: as §1, §2

Enterobacter spp. = assay type: cell-based; conditions: 18 h
Procedure: as §1, §2

K. pneumoniae = assay type: cell-based; conditions: 18 h
Procedure: as §1, §2

P. aeruginosa = assay type: cell-based; conditions: 18 h
Procedure: as §1, §2

S. aureus = assay type: cell-based; conditions: 18 h
Procedure: as §1, §2

[1] = test system: S. aureus (SA719) biofilm; assay type: cell-based; conditions: 24 h
Procedure: as §1
Figure 3 Antibiofilm activities of the […] peptides. MBEC or minimum biofilm elimination concentration is the minimum concentration at which no biomass was detected by the crystal violet method. Standard deviations reflect differences between 2 independent trials. The dashed line is to clarify the mid-point between 0 and 5.

human red blood cells = assay: Red blood cell lysis; assay type: cell-based; conditions: H-RWV16 versus L-RWV12
Procedure: Lytic effects on human red blood cells were examined as previously described. Briefly, RBCs were separated by histopaque differential centrifugation using blood anonymously obtained from Vitalant (Pittsburgh, PA, USA). For RBC lysis assay, the isolated RBCs were resuspended in PBS at a concentration of 5%. The peptides were serially diluted 2-fold in 100 µL of PBS with a starting concentration of 32 µM. A volume of 100 µL of the prepared 5% RBC solution was then added for a final concentration of 2.5% RBC and incubated for 1 h. After incubation, the plates were centrifuged at 1000× g for 7 min and the supernatant was removed to measure its OD. In parallel, a standard curve of RBC lysis was generated by lysing the RBCs with deionized water at […] RBC dilutions of 10, 20, 30, 40, 50, 60, 70, 80, 90, and 100% to determine the percentage of RBC lysis in the test samples. Both the treated test samples and standard curve were read at A570. Three independent trials of the experiment were conducted.
Figure 4 Human RBC lytic effects of the […] peptides. Indolicidin (Indo) was used as control; RBC lysis was assayed in PBS as described in Methods. For clarity, the dashed line indicates the 10% lysis mark across the graph as a critical point between minor (<10%) and moderate (>10%) RBC lysis.

| Sequence | Mean MIC, A. baumannii (A. baumannii) [µM] | Mean MIC, E. coli (E. coli) [µM] | Mean MIC, E. faecium (E. faecium) [µM] | Mean MIC, Enterobacter spp. (Enterobacter spp.) [µM] | Mean MIC, K. pneumoniae (K. pneumoniae) [µM] | Mean MIC, P. aeruginosa (P. aeruginosa) [µM] | Mean MIC, S. aureus (S. aureus) [µM] | MBEC (minimum biofilm elimination concentration, no detectable biomass) [1] [µM] | Lytic effect on human RBCs relative to L-RWV12 (human red blood cells) [fold] | RBC lysis [%] |
| --- | --- | --- | --- | --- | --- | --- | --- | --- | --- | --- |
| RRRRRRRRWWWWVVVV [L-RWV16] | 21 ± 11 | 24 ± 10 | 32 | 32 | 32 | 32 | 32 | – | – | – |
| RRRRRRRWWWWVVV [L-RWV14] | 7.4 ± 6.2 | 4.4 ± 2.7 | 19 ± 11 | 16.9 ± 14 | 3 ± 1 | 21 ± 9 | 3 ± 1 | 2.6 ± 1.2 | – | – |
| RRRRRRWWWWVV [L-RWV12] | – | 4.6 ± 1.6 | – | – | – | – | – | 2.5 ± 1.3 | – | – |
| RRRRRWWWWV [L-RWV10] | 8.5 ± 3.6 | 8 | 21 ± 9.5 | 32 | 26 ± 8.2 | 22 ± 7.7 | 26 ± 8 | – | – | – |
| RRRRWWWW [L-RWV8] | 10.2 ± 0.9 | 16 | 30 ± 5 | 30.2 ± 5.3 | 20 ± 7.4 | 30 ± 5.2 | 20. ± 0.7 | – | – | – |
| RRVWRWVRRVWRWVRR [H-RWV16] | – | – | – | – | – | – | – | – | 3 | – |
| RRVWRWVRRWWR [H-RWV12] | 6 ± 2.3 | 6.4 ± 2.2 | 28 ± 10 | 28 ± 7.4 | 18 ± 12 | 24 ± 8 | 18 ± 12 | 2 | – | – |
| RRVWRWVRRWWRRV [H-RWV14] | 8 ± 5.6 | – | 17 ± 12 | 7.2 ± 5.6 | 7.5 ± 12 | 12 ± 4 | 7.5 ± 12 | 1.7 ± 0.5 | – | 3 |
| RRWWRRVWRW [H-RWV10] | 22 ± 12 | 22 ± 8.8 | 19 ± 13 | 32 | 29 ± 6.5 | 24 ± 8 | 29 ± 6.5 | – | – | – |
| RRWWRRWW [H-RWV8] | 24 ± 9.2 | 24 ± 8.8 | 32 | 32 | 29 ± 7.1 | 27 ± 7.5 | 29 ± 7 | – | – | – |
